logP data for 18 molecules are collected here from the SangsterLogP compilation.

As usually defined, the logP is the decadic logarithm of the partition coefficient of the neutral form, usually between octanol and water.

In turn, `Clc1ccc(C(COCc2cccs2)Cn2cncn2)c(Cl)c1` (stereo not drawn) displayed a logP of 4.42. Under `COc1cccc(COCC(Cn2cncn2)c2ccc(Cl)cc2Cl)c1` (stereo not drawn) stands 3.85. For the molecule `Clc1ccc(C(COCc2ccc3ccccc3c2)Cn2cncn2)c(Cl)c1` (stereo not drawn), the logP worked out at 4.48. The molecule `Clc1ccc(C(COCc2ccc(OCc3ccccc3)cc2)Cn2cncn2)c(Cl)c1` (stereo not drawn) showed a logP of 4.46. Then `CC(C)=CCOCC(Cn1cncn1)c1ccc(Cl)cc1Cl` (stereo not drawn), with 3.91; and `Clc1ccc(C(COCC=Cc2ccccc2)Cn2cncn2)c(Cl)c1` (stereo not drawn), with 4.21; and `Clc1ccc(C(COCc2ccc(-c3ccccc3)cc2)Cn2cncn2)c(Cl)c1` (stereo not drawn), with 4.29.

Molecule `N#CCCOCC(Cn1cncn1)c1ccc(Cl)cc1Cl` (stereo not drawn) registered a logP of 0.36. The molecule `CC(C)(C)c1ccc(COCC(Cn2cncn2)c2ccc(Cl)cc2Cl)cc1` (stereo not drawn) returned a logP of 4.84. Then `O=[N+]([O-])c1ccc(COCC(Cn2cncn2)c2ccc(Cl)cc2Cl)cc1` (stereo not drawn), with 3.72; and `Clc1ccc(C(COCc2ccccc2)Cn2cncn2)c(Cl)c1` (stereo not drawn), with 3.83. In turn, `C=CCOCC(Cn1cncn1)c1ccc(Cl)cc1Cl` (stereo not drawn) yielded a logP of 3.49. Under `Clc1ccc(C(COCCCc2ccccc2)Cn2cncn2)c(Cl)c1` (stereo not drawn) stands 4.77; under `Clc1ccc(C(COCc2cccc(Oc3ccccc3)c2)Cn2cncn2)c(Cl)c1` (stereo not drawn), 4.58; under `C=C(C)COCC(Cn1cncn1)c1ccc(Cl)cc1Cl` (stereo not drawn), 3.72. Under `C=C(Cl)COCC(Cn1cncn1)c1ccc(Cl)cc1Cl` (stereo not drawn) stands 3.7; under `Clc1ccc(COCC(Cn2cncn2)c2ccc(Cl)cc2Cl)c(Cl)c1` (stereo not drawn), 4.71.

Take `C#CCOCC(Cn1cncn1)c1ccc(Cl)cc1Cl` (stereo not drawn): the logP is 2.93.
